This passage reports Ki results from BindingDB's records for doi:10.1021/jm9803626 (Dupont Pharmaceuticals, 1999).

This assay deals with T1, Dimer of Gag-Pol polyprotein [489-587] (Human immunodeficiency virus 1, UniProt P04585).
T1 construct: 489-587
In words: Protease Inhibition Assay. The procedure:
Inhibition of HIV protease was measured by assay of the cleavage of a fluorescent peptide substrate. The fluorescent product (2-aminobenzoyl-Ala-Thr-His-Gln-Val-Tyr) was separated from the fluorescent substrate by anion-exchange HPLC on a Mono-Q anion-exchange column (Pharmacia), and fluorescence was monitored at an excitation wavelength of 330 nm and an emission wavelength of 430 nm. Ki values for inhibitor binding were estimated at fixed concentrations of substrate and inhibitor from fractional activity measurements by use of the modified Michaelis-Menten equation.

Take `N/C(=N\O)c1cccc(CN2C(=O)N[C@H](CCc3ccccc3)[C@@H](O)[C@H]2Cc2ccccc2)c1` [(4R,5R,6R)-Tetrahydro-1-(3-(N-hydroxycarboximidamide)phenylmethyl)-6-phenylmethyl-5-hydroxy-4-(2-phenylethyl)-2(1H)-pyrimidinone]: the Ki was 0.00024 µM.

Regarding `O=C1N[C@H](CCc2ccccc2)[C@@H](O)[C@@H](Cc2ccccc2)N1Cc1ccccc1` [(4R,5S,6R)-Tetrahydro-1,6-bis-(phenylmethyl)-5-hydroxy-4-(2-phenylethyl)-2(1H)-pyrimidinone], the inhibition constant (Ki) worked out at 0.066 µM.
